Entries after “also recorded” stand apart in the source; their conditions may differ.
Tests used:
[1] = test system: GM6914 cells (FA-A cells); assay: Traffic light reporter assay of HR and NHEJ repair events; format: cell-based; conditions: GM6914 cells exposed to SD-208 for 72 hrs
Text: FIGS. 4A-4B are graphs showing that TGF-β pathway inhibition affects the choice of HR versus NHEJ pathways in repairing individual DNA breakpoints in FA cells. GM6914 cells (FA-A cells) or FANCA corrected GM6914 cells with shControl or shSMAD3 were used to generate traffic light reporter system, and then were infected with GFP-donor template and I-SceI lentivirus to generate DNA breakpoints. Quantification analysis of HR and NHEJ repair events is shown. (FIG. 4B) The ratio of HR to NHEJ activity based on the data in (FIG. 4A).
Quantification of HR and NHEJ repair events in GM6914 cells exposed to SD-208 for 72 hrs as detected by traffic light reporter assay described in FIG. 4A.
FIG. 5A is a schematic of traffic light reporter assay. Endonuclease 1-SceI induces double strand break (DSB) in the restriction site. […]
FIG. 5B is a graph showing HR and NHEJ repair analyzed by traffic light reporter (TLR) system. […] HR and NHEJ repair events (GFP or mCherry positive cells) were quantified by flow cytometry.
To directly confirm that inhibition of TGF-β pathway modulates HR or NHEJ activity, we engineered an individual DNA breakpoint in FA (GM6914) cells and employed the traffic light reporter […] system which quantifies both HR and NHEJ activities (Certo et al., 2011). […]

gamma H2AX foci = assay: pIpC stress in mice, gamma H2AX foci; conditions: wild-type or Fancd2-deficient mice, pretreated in vivo
Text: (§1) FIG. 6A is a schematic showing that wild-type or Fancd2-deficient mice were exposed to the physiologic stress, pIpC. Mice were pretreated in vivo with either no Tgfβ inhibitor, the neutralizing antibody to Tgfβ 1, 2, 3, or the Tgfβ receptor kinase inhibitor, Galunisertib. Long-term HSCs (LT-HSCs) were isolated and subjected to functional tests.

TGFβ signaling = assay: Physiological stress (pIpC)-induced bone marrow failure in mice; conditions: pretreated in vivo
Text: as §1

LT-HSCs = assay: pIpC stress in mice, comet assay on LT-HSCs; conditions: wild-type or Fancd2-deficient mice, pretreated in vivo
Text: as §1

RAD51 foci = RAD51 foci formation by immunofluorescence in MMC-treated GM6914 cells; format: cell-based; conditions: GM6914 (FA-A) or GM6914+FANCA cells, 1 μM MMC, 10 μM inhibitors, 6 h
Protocol: GM6914 (FA-A) cells or corrected GM6914+FANCA cells were treated with 1 μMMMC and 10 μM inhibitors for 6 h before immunofluorescence analysis. Representative images (FIG. 3E) and quantification (FIG. 3F) of RAD51 foci are shown, (Scale bar: 50 μm).

[2] = test system: U2OS cells with DR-GFP reporter; assay: Homologous recombination assay, U2OS cells with DR-GFP reporter; format: cell-based; conditions: 10 μM
Protocol: Homologous recombination assay was measured in U2OS cells with DR-GFP reporter after treatment with 10 μM RI-1 and 10 μM B02. The representative of two independent experiments is presented.
HR assay was measured in U2OS cells with DR-GFP reporter after transduction with lentivirus encoding indicated shRNAs. The representative of three independent experiments is presented.

HSPCs = assay: HSPC survival with RAD51 inhibitors (cytotoxicity); format: cell-based; conditions: HSPCs from WT or Fancd2−/− mice, 10 μM, in vitro five days
Protocol: HSPCs from WT or Fancd2−/− mice were treated with B02 (10 μM) or RI-1 (10 μM) in vitro for five days and survival was determined.

Structure (SMILES) | RAD51 foci formation (RAD51 foci) | HR efficiency [2] | cytotoxicity in HSPCs (survival) (HSPCs) | other results
Fc1ccc(Cl)cc1-c1nc(Nc2ccncc2)c2nccnc2n1 [SD208, 2-(5-Chloro-2-fluorophenyl)-4-[(4-pyridyl)amino]pteridine] |  |  |  | HR repair events [1]: increased HR activity in FA cells; also recorded: increases FIR events; NHEJ repair events [1]: decreases NHEJ events
Cc1cccc(-c2nn3c(c2-c2ccnc4ccc(C(N)=O)cc24)CCC3)n1 [Galunisertib, 4-[2-(6-methylpyridin-2-yl)-5,6-dihydro-4H-pyrrolo[1,2-b]pyrazol-3-yl]quinoline-6-carboxamide] |  |  |  | pIpC-induced DNA damage, gamma H2AX foci (gamma H2AX foci): rescued the pIpC-induced DNA damage; physiological stress-induced bone marrow failure (TGFβ signaling): rescues physiological stress-induced bone marrow failure in mice; pIpC-induced DNA damage in LT-HSCs, comet assay (LT-HSCs): rescued the pIpC-induced DNA damage
O=c1c2ccccc2nc(/C=C/c2cccnc2)n1Cc1ccccc1 [B02] | efficiently block RAD51 foci formation | significantly decrease HR efficiency | do not show cytotoxicity in HSPCs | 
O=C1C(Cl)=C(N2CCOCC2)C(=O)N1c1ccc(Cl)c(Cl)c1 [RI-1] | efficiently block RAD51 foci formation | significantly decrease HR efficiency | do not show cytotoxicity in HSPCs | 

From patent publication US11421218B2, “Methods for enhancing the efficiency of gene editing” (Dana-Farber Cancer Institute, Inc., priority 2016, dated 2022)
